Laboratory results published in PubChem BioAssay (NCI).
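96-well plates; 48 h exposure; 5 concentrations. Endpoints by linear interpolation between flanking doses. Not reached: highest tested concentration assigned. The concentration for full growth arrest is given as TGI.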

Columns and labels:
Test in all cases: inhibition of tumour cell growth, NCI panel, 48 h
KM12 colon = system: KM12 colon
SNB-75 CNS = system: SNB-75 CNS
UACC-257 melanoma = system: UACC-257 melanoma
SR leukemia = system: SR leukemia
HCT-116 colon = system: HCT-116 colon
HCC-2998 colon = system: HCC-2998 colon
MDA-MB-231 breast = system: MDA-MB-231 breast
HL-60(TB) leukemia = system: HL-60(TB) leukemia
OVCAR-3 ovarian = system: OVCAR-3 ovarian
SK-MEL-28 melanoma = system: SK-MEL-28 melanoma
A498 renal = system: A498 renal
COLO 205 colon = system: COLO 205 colon
BT-549 breast = system: BT-549 breast
A549 NSCLC = system: A549 NSCLC
HS 578T breast = system: HS 578T breast
SN12C renal = system: SN12C renal
RXF 393 renal = system: RXF 393 renal
MCF7 breast = system: MCF7 breast
M14 melanoma = system: M14 melanoma
U251 CNS = system: U251 CNS
NCI-H460 lung = system: NCI-H460 lung
UACC-62 melanoma = system: UACC-62 melanoma
TK-10 renal = system: TK-10 renal
PC-3 prostate = system: PC-3 prostate
CCRF-CEM leukemia = system: CCRF-CEM leukemia
LOX IMVI melanoma = system: LOX IMVI melanoma
OVCAR-4 ovarian = system: OVCAR-4 ovarian
NCI/ADR-RES ovarian = system: NCI/ADR-RES ovarian
T-47D breast = system: T-47D breast
UO-31 renal = system: UO-31 renal
SF-539 CNS = system: SF-539 CNS
EKVX NSCLC = system: EKVX NSCLC
SF-295 CNS = system: SF-295 CNS
NCI-H23 lung = system: NCI-H23 lung
786-0 renal = system: 786-0 renal
ACHN renal = system: ACHN renal
DU-145 prostate = system: DU-145 prostate
SK-MEL-2 melanoma = system: SK-MEL-2 melanoma
HOP-92 NSCLC = system: HOP-92 NSCLC
SF-268 CNS = system: SF-268 CNS
SNB-19 CNS = system: SNB-19 CNS
MOLT-4 leukemia = system: MOLT-4 leukemia
IGROV1 ovarian = system: IGROV1 ovarian
CAKI-1 renal = system: CAKI-1 renal
HT29 colon = system: HT29 colon
NCI-H522 lung = system: NCI-H522 lung
HCT-15 colon = system: HCT-15 colon
OVCAR-8 ovarian = system: OVCAR-8 ovarian
MDA-MB-435 = system: MDA-MB-435
MDA-N = system: MDA-N
K-562 leukemia = system: K-562 leukemia
OVCAR-5 ovarian = system: OVCAR-5 ovarian
SW-620 colon = system: SW-620 colon
HOP-62 NSCLC = system: HOP-62 NSCLC
SK-MEL-5 melanoma = system: SK-MEL-5 melanoma
RPMI-8226 leukemia = system: RPMI-8226 leukemia
NCI-H226 lung = system: NCI-H226 lung
SK-OV-3 ovarian = system: SK-OV-3 ovarian

CC(C)N(C(=O)C12C3(C(=O)OC(C)(C)C)C4C5(C#N)C3C1(C(=O)OC(C)(C)C)C5C42C(=O)OC(C)(C)C)C(C)C (stereo unspecified)
TGI (KM12 colon): > 100 µM
TGI (SNB-75 CNS): 41.8 µM
TGI (UACC-257 melanoma): > 100 µM
TGI (SR leukemia): 69.6 µM
TGI (HCT-116 colon): 73.5 µM
TGI (HCC-2998 colon): > 100 µM
TGI (MDA-MB-231 breast): > 100 µM
TGI (HL-60(TB) leukemia): > 100 µM
TGI (OVCAR-3 ovarian): > 100 µM
TGI (SK-MEL-28 melanoma): > 100 µM
TGI (A498 renal): > 100 µM
TGI (COLO 205 colon): > 100 µM
TGI (BT-549 breast): > 100 µM
TGI (A549 NSCLC): > 100 µM
TGI (HS 578T breast): > 100 µM
TGI (SN12C renal): > 100 µM
TGI (RXF 393 renal): > 100 µM
TGI (MCF7 breast): 43.9 µM
TGI (M14 melanoma): > 100 µM
TGI (U251 CNS): > 100 µM
TGI (NCI-H460 lung): > 100 µM
TGI (UACC-62 melanoma): > 100 µM
TGI (TK-10 renal): > 100 µM
TGI (PC-3 prostate): > 100 µM
TGI (CCRF-CEM leukemia): 30.9 µM
TGI (LOX IMVI melanoma): 29 µM
TGI (OVCAR-4 ovarian): > 100 µM
TGI (NCI/ADR-RES ovarian): > 100 µM
TGI (T-47D breast): > 100 µM
TGI (UO-31 renal): > 100 µM
TGI (SF-539 CNS): > 100 µM
TGI (EKVX NSCLC): > 100 µM
TGI (SF-295 CNS): > 100 µM
TGI (NCI-H23 lung): > 100 µM
TGI (786-0 renal): > 100 µM
TGI (ACHN renal): > 100 µM
TGI (DU-145 prostate): > 100 µM
TGI (SK-MEL-2 melanoma): > 100 µM
TGI (HOP-92 NSCLC): > 100 µM
TGI (SF-268 CNS): > 100 µM
TGI (SNB-19 CNS): > 100 µM
TGI (MOLT-4 leukemia): 40.1 µM
TGI (IGROV1 ovarian): > 100 µM
TGI (CAKI-1 renal): > 100 µM
TGI (HT29 colon): > 100 µM
TGI (NCI-H522 lung): > 100 µM
TGI (HCT-15 colon): > 100 µM
TGI (OVCAR-8 ovarian): > 100 µM
TGI (MDA-MB-435): > 100 µM
TGI (MDA-N): > 100 µM
TGI (K-562 leukemia): > 100 µM
TGI (OVCAR-5 ovarian): > 100 µM
TGI (SW-620 colon): > 100 µM
TGI (HOP-62 NSCLC): > 100 µM
TGI (SK-MEL-5 melanoma): > 100 µM

[N-]=[N+]=NCC1OCC(O)C(OCc2ccccc2)C1OCc1ccccc1 (stereo unspecified)
TGI (KM12 colon): > 100 µM
TGI (SNB-75 CNS): > 100 µM
TGI (UACC-257 melanoma): > 100 µM
TGI (SR leukemia): > 100 µM
TGI (HCT-116 colon): > 100 µM
TGI (HCC-2998 colon): > 100 µM
TGI (MDA-MB-231 breast): > 100 µM
TGI (HL-60(TB) leukemia): > 100 µM
TGI (OVCAR-3 ovarian): > 100 µM
TGI (RPMI-8226 leukemia): > 100 µM
TGI (SK-MEL-28 melanoma): > 100 µM
TGI (A498 renal): > 100 µM
TGI (COLO 205 colon): > 100 µM
TGI (BT-549 breast): > 100 µM
TGI (A549 NSCLC): > 100 µM
TGI (HS 578T breast): > 100 µM
TGI (SN12C renal): > 100 µM
TGI (MCF7 breast): > 100 µM
TGI (M14 melanoma): > 100 µM
TGI (U251 CNS): > 100 µM
TGI (NCI-H460 lung): > 100 µM
TGI (UACC-62 melanoma): > 100 µM
TGI (TK-10 renal): > 100 µM
TGI (PC-3 prostate): > 100 µM
TGI (CCRF-CEM leukemia): > 100 µM
TGI (LOX IMVI melanoma): > 100 µM
TGI (OVCAR-4 ovarian): > 100 µM
TGI (NCI/ADR-RES ovarian): > 100 µM
TGI (T-47D breast): > 100 µM
TGI (UO-31 renal): > 100 µM
TGI (NCI-H226 lung): > 100 µM
TGI (SF-539 CNS): > 100 µM
TGI (EKVX NSCLC): > 100 µM
TGI (SF-295 CNS): > 100 µM
TGI (NCI-H23 lung): > 100 µM
TGI (786-0 renal): > 100 µM
TGI (ACHN renal): > 100 µM
TGI (DU-145 prostate): > 100 µM
TGI (SK-MEL-2 melanoma): > 100 µM
TGI (HOP-92 NSCLC): > 100 µM
TGI (SF-268 CNS): > 100 µM
TGI (SNB-19 CNS): > 100 µM
TGI (MOLT-4 leukemia): > 100 µM
TGI (IGROV1 ovarian): > 100 µM
TGI (CAKI-1 renal): > 100 µM
TGI (HT29 colon): > 100 µM
TGI (NCI-H522 lung): > 100 µM
TGI (HCT-15 colon): > 100 µM
TGI (OVCAR-8 ovarian): > 100 µM
TGI (MDA-MB-435): > 100 µM
TGI (MDA-N): > 100 µM
TGI (K-562 leukemia): > 100 µM
TGI (OVCAR-5 ovarian): > 100 µM
TGI (SW-620 colon): > 100 µM
TGI (HOP-62 NSCLC): > 100 µM
TGI (SK-MEL-5 melanoma): > 100 µM
TGI (SK-OV-3 ovarian): > 100 µM

O=C(Cn1nnc(-c2ccccc2)n1)N/N=C/c1cn(Cc2ccc(Cl)cc2Cl)c2ccccc12
TGI (KM12 colon): > 100 µM
TGI (SNB-75 CNS): > 100 µM
TGI (UACC-257 melanoma): > 100 µM
TGI (SR leukemia): > 100 µM
TGI (HCT-116 colon): > 100 µM
TGI (MDA-MB-231 breast): > 100 µM
TGI (HL-60(TB) leukemia): > 100 µM
TGI (OVCAR-3 ovarian): > 100 µM
TGI (RPMI-8226 leukemia): > 100 µM
TGI (A498 renal): > 100 µM
TGI (COLO 205 colon): > 100 µM
TGI (BT-549 breast): > 100 µM
TGI (A549 NSCLC): > 100 µM
TGI (HS 578T breast): > 100 µM
TGI (SN12C renal): > 100 µM
TGI (MCF7 breast): > 100 µM
TGI (M14 melanoma): > 100 µM
TGI (U251 CNS): > 100 µM
TGI (NCI-H460 lung): > 100 µM
TGI (UACC-62 melanoma): > 100 µM
TGI (TK-10 renal): > 100 µM
TGI (PC-3 prostate): > 100 µM
TGI (CCRF-CEM leukemia): > 100 µM
TGI (LOX IMVI melanoma): > 100 µM
TGI (OVCAR-4 ovarian): > 100 µM
TGI (NCI/ADR-RES ovarian): > 100 µM
TGI (T-47D breast): > 100 µM
TGI (UO-31 renal): > 100 µM
TGI (SF-539 CNS): > 100 µM
TGI (EKVX NSCLC): > 100 µM
TGI (SF-295 CNS): > 100 µM
TGI (NCI-H23 lung): > 100 µM
TGI (786-0 renal): > 100 µM
TGI (ACHN renal): > 100 µM
TGI (DU-145 prostate): > 100 µM
TGI (SK-MEL-2 melanoma): > 100 µM
TGI (HOP-92 NSCLC): > 100 µM
TGI (SF-268 CNS): > 100 µM
TGI (SNB-19 CNS): > 100 µM
TGI (MOLT-4 leukemia): > 100 µM
TGI (IGROV1 ovarian): > 100 µM
TGI (CAKI-1 renal): > 100 µM
TGI (HT29 colon): > 100 µM
TGI (NCI-H522 lung): > 100 µM
TGI (HCT-15 colon): > 100 µM
TGI (OVCAR-8 ovarian): > 100 µM
TGI (MDA-MB-435): > 100 µM
TGI (MDA-N): > 100 µM
TGI (K-562 leukemia): > 100 µM
TGI (OVCAR-5 ovarian): > 100 µM
TGI (SW-620 colon): > 100 µM
TGI (HOP-62 NSCLC): > 100 µM
TGI (SK-MEL-5 melanoma): > 100 µM
TGI (SK-OV-3 ovarian): > 100 µM
